A word on the IC50: it is the point on the concentration scale where inhibition reaches its midpoint. In general, IC90 refers to the point of the concentration-response curve where the effect stands at 90%.

The test system of the test is Plasmodium berghei. In words: Luciferase/luciferin-expressing antifolate-resistant parasites were used to infect a culture of HepG2 cells that were pre-incubated with compounds. Infected hepatocytes emit light due to the luciferase reaction. Assay results are presented as the percent inhibition of light emission compared to control. […]. In kind it is functional. The conditions noted are these: sporozoite; for IC90: read-out: LUCIFERASE INFECTION ASSAY - IC90.

As for `Cc1nc2ccccn2c1-c1ccnn1S(=O)(=O)c1ccc(F)cc1`, the IC90 came to 3.78 µM. In addition, the IC50 (HEPG2TOX_HILL_SLOPE 1.46, HEPG2TOX_R_SQUARED 0.888, PBLUC_HILL_SLOPE 12.2, PBLUC_R_SQUARED 0.241, read-out: LUCIFERASE INFECTION ASSAY - IC50) came to 3.16 µM.

Consider `Oc1ccc(CN2CCN(c3ccccn3)CC2)c2cccnc12`, for which the IC90 is greater than 10 µM. Also, the IC50 (HEPG2TOX_HILL_SLOPE 1.46, HEPG2TOX_R_SQUARED 0.941, PBLUC_HILL_SLOPE 3.25, PBLUC_R_SQUARED 0.21, read-out: LUCIFERASE INFECTION ASSAY - IC50) came to 7.97 µM.

Consider `COc1ccc(C(=O)/C=C/c2cc(Br)c(OCC(=O)N(C)C)c(OC)c2)c(OC)c1`, for which the IC90 amounted to 4.46 µM. Also, for the setting “HEPG2TOX_HILL_SLOPE 1.45, HEPG2TOX_R_SQUARED 0.95, PBLUC_HILL_SLOPE 1.66, PBLUC_R_SQUARED 0.857, read-out: LUCIFERASE INFECTION ASSAY - IC50”, the IC50 came out at 1.19 µM.

For `N#C/C(=N\Nc1ccc(OC(F)(F)F)cc1)C(=O)c1ccsc1`, the IC90 was determined as 6.42 µM. The IC50 (HEPG2TOX_HILL_SLOPE 1.43, HEPG2TOX_R_SQUARED 0.957, PBLUC_HILL_SLOPE 2.41, PBLUC_R_SQUARED 0.455, read-out: LUCIFERASE INFECTION ASSAY - IC50) was 2.58 µM.

As to `Cc1cc(Nc2cccc(C(F)(F)F)c2)n2ncc(C#N)c2n1`, the IC90 was 3.35 µM. The IC50 (HEPG2TOX_HILL_SLOPE 1.43, HEPG2TOX_R_SQUARED 0.906, PBLUC_HILL_SLOPE 4.64, PBLUC_R_SQUARED 0.533, read-out: LUCIFERASE INFECTION ASSAY - IC50) stood at 2.09 µM.

Turning to `c1nc(NCc2ccc(CN3CCOCC3)cc2)c2sccc2n1`, the IC90 was greater than 10 µM. In addition, the IC50 (HEPG2TOX_HILL_SLOPE 1.44, HEPG2TOX_R_SQUARED 0.736, PBLUC_HILL_SLOPE 1.22, PBLUC_R_SQUARED 0.605, read-out: LUCIFERASE INFECTION ASSAY - IC50) came out at 2.88 µM.

With `Cc1ccc(NCC(=O)NC(=O)Nc2cccc(C)c2C)cc1S(=O)(=O)N1CCCCC1`, the IC90 is greater than 10 µM. For the same compound, under “HEPG2TOX_HILL_SLOPE 1.43, HEPG2TOX_R_SQUARED 0.867, PBLUC_HILL_SLOPE 1.55, PBLUC_R_SQUARED 0.466, read-out: LUCIFERASE INFECTION ASSAY - IC50”, the IC50 was 2.55 µM.

Turning to `CC(C)Cn1c(SCc2cn3cc(Cl)ccc3n2)nc2ccccc2c1=O`, the IC90 is 7.86 µM. Besides, the IC50 (HEPG2TOX_HILL_SLOPE 1.44, HEPG2TOX_R_SQUARED 0.631, PBLUC_HILL_SLOPE 96, PBLUC_R_SQUARED 0.548, read-out: LUCIFERASE INFECTION ASSAY - IC50) worked out at 7.68 µM.

As for `CCCn1c(C)cc(/C=C(\C#N)C(=O)Nc2ccc3c(c2)OCO3)c1C`, the IC90 is 2.3 µM. The IC50 (HEPG2TOX_HILL_SLOPE 1.46, HEPG2TOX_R_SQUARED 0.846, PBLUC_HILL_SLOPE 2.22, PBLUC_R_SQUARED 0.625, read-out: LUCIFERASE INFECTION ASSAY - IC50) is 0.857 µM.

Turning to `Cc1cc(C)c2cc(C(=O)Nc3ccc(N4CCN(C)CC4)nc3)[nH]c2c1`, the IC90 worked out at 3.64 µM. Moreover, the IC50 (HEPG2TOX_HILL_SLOPE 1.47, HEPG2TOX_R_SQUARED 0.9, PBLUC_HILL_SLOPE 16.4, PBLUC_R_SQUARED 0.482, read-out: LUCIFERASE INFECTION ASSAY - IC50) turned out to be 3.19 µM.

Consider `Cc1nnsc1C(=O)Nc1nc(C(F)(F)F)c(-c2ccccc2)s1`, for which the IC90 was greater than 8.91 µM. For the setting “HEPG2TOX_HILL_SLOPE 1.46, HEPG2TOX_R_SQUARED 0.922, PBLUC_HILL_SLOPE 11.5, PBLUC_R_SQUARED 0.414, read-out: LUCIFERASE INFECTION ASSAY - IC50”, the IC50 is 8.03 µM.

`Cc1ccc(Nc2cc(C(C)C)c(OS(=O)(=O)c3ccc(C)cc3)c(C(C)C)c2)cc1`: the IC90 turned out to be 9.61 µM. For the same compound, the IC50 (HEPG2TOX_HILL_SLOPE 1.43, HEPG2TOX_R_SQUARED 0.724, PBLUC_HILL_SLOPE 19.9, PBLUC_R_SQUARED 0.613, read-out: LUCIFERASE INFECTION ASSAY - IC50) was found to be 8.6 µM.

In the case of `Cc1cc(-c2cnc(N)c(-c3cccc(C(F)(F)F)c3)c2)cc(C)c1O`, the IC90 came to 4.83 µM. The IC50 (HEPG2TOX_HILL_SLOPE 1.44, HEPG2TOX_R_SQUARED 0.945, PBLUC_HILL_SLOPE 1.93, PBLUC_R_SQUARED 0.583, read-out: LUCIFERASE INFECTION ASSAY - IC50) turned out to be 1.55 µM.

As for `COc1cc(-c2ccc(N3CCN(c4ccncc4)CC3)nc2)cc(OC)c1OC`, the IC90 is greater than 8.12 µM. Further, for the setting “HEPG2TOX_HILL_SLOPE 1.45, HEPG2TOX_R_SQUARED 0.424, PBLUC_HILL_SLOPE 3.58, PBLUC_R_SQUARED 0.452, read-out: LUCIFERASE INFECTION ASSAY - IC50”, the IC50 is 6.09 µM.

`COc1ccc(Nc2ccn3ncc(-c4ccc(OC)c(OC)c4)c3n2)cn1`: the IC90 was determined as 1.73 µM. In addition, the concentration for half-maximal inhibition (IC50) (HEPG2TOX_HILL_SLOPE 1.44, HEPG2TOX_R_SQUARED 0.951, PBLUC_HILL_SLOPE 2.71, PBLUC_R_SQUARED 0.798, read-out: LUCIFERASE INFECTION ASSAY - IC50) turned out to be 0.768 µM.

As to `Cc1nnsc1-c1onc(C)c1C(=O)NC(=O)Nc1cc(Cl)cc(Cl)c1`, the 90% effect concentration (IC90) was determined as 3.02 µM. Also, the IC50 (HEPG2TOX_HILL_SLOPE 1.43, HEPG2TOX_R_SQUARED 0.987, PBLUC_HILL_SLOPE 8.7, PBLUC_R_SQUARED 0.518, read-out: LUCIFERASE INFECTION ASSAY - IC50) turned out to be 2.34 µM.

For the compound `Cc1ccc(NC(=O)N2CCCN(c3nc4ccc(Cl)cc4s3)CC2)cc1`, the IC90 was greater than 8.23 µM. Moreover, for the setting “HEPG2TOX_HILL_SLOPE 1.45, HEPG2TOX_R_SQUARED 0.845, PBLUC_HILL_SLOPE 2.38, PBLUC_R_SQUARED 0.538, read-out: LUCIFERASE INFECTION ASSAY - IC50”, the IC50 stood at 3.62 µM.

With `COc1ccc(-c2cnn3ccc(NCc4cccnc4)nc23)cc1OC`, the 90% effect concentration (IC90) was determined as 5.49 µM. Under “HEPG2TOX_HILL_SLOPE 1.45, HEPG2TOX_R_SQUARED 0.956, PBLUC_HILL_SLOPE 2.78, PBLUC_R_SQUARED 0.698, read-out: LUCIFERASE INFECTION ASSAY - IC50”, the IC50 worked out at 2.49 µM.

Regarding `Cc1cc(NC(=O)c2ccc(CN3CCN(C/C=C/c4ccccc4)CC3)cc2)ccc1Cl`, the IC90 was greater than 10 µM. The IC50 (HEPG2TOX_HILL_SLOPE 1.44, HEPG2TOX_R_SQUARED 0.929, PBLUC_HILL_SLOPE 2.64, PBLUC_R_SQUARED 0.29, read-out: LUCIFERASE INFECTION ASSAY - IC50) worked out at 4.99 µM.

Take `O=C(Nc1ccc(SC(F)(F)F)cc1)Nc1ccc(SC(F)(F)F)cc1`: the IC90 was determined as 0.867 µM. Besides, for the setting “HEPG2TOX_HILL_SLOPE 1.44, HEPG2TOX_R_SQUARED 0.886, PBLUC_HILL_SLOPE 1.62, PBLUC_R_SQUARED 0.668, read-out: LUCIFERASE INFECTION ASSAY - IC50”, the IC50 was 0.223 µM.

For the compound `COc1ccc(-c2csc3ncnc(NCCCCCc4n[nH]c(N)c4C#N)c23)cc1`, the IC90 was determined as 3.53 µM. Besides, the IC50 (HEPG2TOX_HILL_SLOPE 1.47, HEPG2TOX_R_SQUARED 0.942, PBLUC_HILL_SLOPE 36.2, PBLUC_R_SQUARED 0.623, read-out: LUCIFERASE INFECTION ASSAY - IC50) was found to be 3.33 µM.

Consider `Cc1ccc(Cl)cc1N1CCN(C(=O)NCc2ccco2)CC1`, for which the IC90 is greater than 10 µM. The IC50 (HEPG2TOX_HILL_SLOPE 1.45, HEPG2TOX_R_SQUARED 0.763, PBLUC_HILL_SLOPE 1.12, PBLUC_R_SQUARED 0.27, read-out: LUCIFERASE INFECTION ASSAY - IC50) amounted to 5.99 µM.

For the compound `COc1ccc(C=C(c2nc3ccccc3s2)c2nc3ccccc3s2)c(OC)c1OC`, the IC90 was greater than 10 µM. In addition, under “HEPG2TOX_HILL_SLOPE 1.46, HEPG2TOX_R_SQUARED 0.78, PBLUC_HILL_SLOPE 2.12, PBLUC_R_SQUARED 0.479, read-out: LUCIFERASE INFECTION ASSAY - IC50”, the concentration for half-maximal inhibition (IC50) amounted to 7.05 µM.

`Cc1ccc(-c2nc(C(=O)NC3CC3)cc3c2[nH]c2ccccc23)cc1`: the IC90 turned out to be 7.38 µM. The IC50 (HEPG2TOX_HILL_SLOPE 1.45, HEPG2TOX_R_SQUARED 0.961, PBLUC_HILL_SLOPE 3.11, PBLUC_R_SQUARED 0.33, read-out: LUCIFERASE INFECTION ASSAY - IC50) came to 3.64 µM.

As for `CC(C)(C)C1CCc2[nH]c(=O)sc2C1` (stereo unspecified), the concentration for an effect of 90% (IC90) worked out at 1.31 µM. For the same compound, the IC50 (HEPG2TOX_HILL_SLOPE 1.45, HEPG2TOX_R_SQUARED 0.907, PBLUC_HILL_SLOPE 17.6, PBLUC_R_SQUARED 0.512, read-out: LUCIFERASE INFECTION ASSAY - IC50) is 1.16 µM.

Consider `Cc1nc(NCc2ccc(N3CCN(C)CC3)nc2)c2c(-c3ccccc3)csc2n1`, for which the IC90 was 3.73 µM. Besides, the IC50 (HEPG2TOX_HILL_SLOPE 1.47, HEPG2TOX_R_SQUARED 0.785, PBLUC_HILL_SLOPE 14.9, PBLUC_R_SQUARED 0.788, read-out: LUCIFERASE INFECTION ASSAY - IC50) was found to be 3.22 µM.

Regarding `N#C/C(=N\Nc1ccc(OC(F)(F)F)cc1)C(=O)C1CC1`, the IC90 was greater than 11.1 µM. Also, the IC50 (HEPG2TOX_HILL_SLOPE 1.44, HEPG2TOX_R_SQUARED 0.96, PBLUC_HILL_SLOPE 2.87, PBLUC_R_SQUARED 0.372, read-out: LUCIFERASE INFECTION ASSAY - IC50) stood at 7.46 µM.

Take `O=C1NC(=O)/C(=C\c2ccc(Cl)c(Cl)c2)N1`: the IC90 came to 5.37 µM. Besides, under “HEPG2TOX_HILL_SLOPE 1.44, HEPG2TOX_R_SQUARED 0.948, PBLUC_HILL_SLOPE 2.09, PBLUC_R_SQUARED 0.686, read-out: LUCIFERASE INFECTION ASSAY - IC50”, the IC50 is 1.87 µM.

Source of the values: ChEMBL document CHEMBL4483862, “Open-source discovery of chemical leads for next-generation chemoprotective antimalarials” (2018).
